# Measured values reported in patent US11596670B2, “Treatment of a disease of the gastrointestinal tract with IL-10 or an IL-10 agonist” (BIORA THERAPEUTICS, INC., priority 2017, dated 2023).
# Experiments:
# [1] = Tissue, plasma, rectal sample and GI content pharmacokinetics of tacrolimus, oral vs. intra-cecal ingestible device (Example 10); design: species or system Yorkshire-Cross farm swine; details: in vivo; for Cmax: female, Yorkshire-Cross, pig, IC capsule
# Description: No further randomization procedure was employed.
# Animals in Group 1 received an ingestible device containing 0.8 mL of vehicle solution (80% alcohol, 20% HCO-60). Animals in Group 2 received orally […] liquid formulation of tacrolimus at 4 mg/0.8 mL per animal (Prograf: 5 mg/mL). Animals in Group 3 received intra-cecally an ingestible device containing tacrolimus at 1 mg in 0.8 mL per ingestible device. Animals in Group 4 received intra-cecally an ingestible device containing tacrolimus at 2 mg in 0.8 mL per ingestible device. Animals in Group 5 received intra-cecally an ingestible device containing tacrolimus at 4 mg in 0.8 mL per ingestible device. To control for potential confounding effects of the surgery, all groups fast on Day −11 at least 24 hr before being subjected to anesthesia followed by surgical placements of a cecal port by a veterinary surgeon at Day −10. All animals were fasted for at least 12 hr prior to dosing on Day 1. Animals were dosed via either intra-cecal dosing (IC) or oral dosing (PO) at Day 1 (between 6-8 p.m.). All animals resumed feeding at approximately 4 hours after dose (11-12 p.m. after dosing).
# Animals in Group 1 (Vehicle Control) were administered a single intra-cecal ingestible device containing 0.8 mL Vehicle solution (80% alcohol, 20% castor oil (HCO-60) on Day 1. On Day −10 the animals were anesthetized, and a veterinary surgeon surgically placed an intra-cecal port in each animal. On Day 1, each animal was placed into a sling then a single intra-cecal ingestible device containing 0.8 mL vehicle solution (80% alcohol, 20% castor oil (HCO-60)) is introduced by the veterinary surgeon into the cecum via the cecal port in each animal. Following ingestible device placement, the animals were removed from the slings and placed back into their pens with water. All animals resumed feeding at approximately 4 hours after dose. […] A total of 60 samples were collected.
# Approximately 200˜400 mg of rectal content were collected, if available, with a fecal swab (Copan Diagnostics Nylon Flocked Dry Swabs, 502CS01). The fecal swab was pre-weighed and weighed after collection in the collection tube (Sterile Tube and Cap No Media, PFPM913S), and the sample weight was recorded. The fecal swab was broken via the breakpoint, and was stored in the collection tube, and immediately frozen at −70° C. […] Immediately following euthanasia, tissue was collected.
# For tissue necropsy, small intestine fluid and cecal fluid were collected separately from all the animals into two separate square plastic bottles, and stored at −20° C. The length and diameter of the cecum and the colon was measured from one animal in each group and recorded for reference. Tissues were collected for pharmacokinetic analyses and include mesenteric lymph nodes, a Peyer's Patch, and five gastrointestinal sections, including cecum, proximal colon, transverse colon, distal colon, and rectum. All samples were weighed, and the tissue sample weights were recorded. In each of the five gastrointestinal sections, tissue samples were collected in three different areas where the mucosal surface was visible and not covered by luminal content by using an 8.0-mm punch biopsy tool. Around 3 grams of the total punched sample were collected into a pre-weighed 15-mL conical tube, and the tissue weight was recorded. Three mesenteric lymph nodes were collected from different areas and weighed. At least one Peyer's Patch was collected and weighed.
# Luminal contents were collected for pharmacokinetic analyses from the surface of the tissue from each of five gastrointestinal sections: cecum, proximal colon, transverse colon, distal colon, and rectum (total of 75).
# in vivo = assay: in vivo
# Description: The primary objective of this study was to study the pharmacokinetics of oral versus intra-cecal administration of tacrolimus in normal Yorkshire-Cross farm swine.
# This study compares the effects of administration of: a single intra-cecal administration of a device containing 0.8 mL sterile vehicle solution (80% alcohol, 20% castor oil (HCO-60)); a single oral dose of tacrolimus at 0.09 mg/kg (in sterile vehicle solution); and a single intra-cecal administration of a device containing either 0.02 mg/kg (in sterile vehicle solution), 0.04 mg/kg (in sterile vehicle solution), or 0.09 mg/kg (in sterile vehicle solution).
# This study employed five groups of three female swine weighing approximately 45 to 50 kg at study start. Swine were randomly placed into animal rooms/pens as they are transferred from the delivery vehicle without regard to group. Group numbers were assigned to the rooms in order of room number. No further randomization procedure was employed.
# Animals in Group 1 received intra-cecally a device containing a vehicle solution (80% alcohol, 20% HCO-60). Animals in Group 2 received orally a liquid formulation of tacrolimus at 0.09 mg/kg per animal. Animals in Group 3 received intra-cecally a device containing tacrolimus at 0.02 mg/kg per device. Animals in Group 4 received intra-cecally a device containing tacrolimus 0.04 mg/kg per device. Animals in Group 5 received intra-cecally a device containing tacrolimus 0.09 mg/kg per device.
# [2] = female, Yorkshire-Cross, pig, in vivo, 0.02 mg/kg
# [3] = female, Yorkshire-Cross, pig, in vivo, 0.09 mg/kg
smiles,measurement,setting,value
C=CC[C@@H]1/C=C(\C)C[C@H](C)C[C@H](OC)[C@H]2O[C@@](O)(C(=O)C(=O)N3CCCC[C@H]3C(=O)O[C@H](/C(C)=C/[C@@H]3CC[C@@H](O)[C@H](OC)C3)[C@H](C)[C@@H](O)CC1=O)[C@H](C)C[C@@H]2OC [tacrolimus],Cmax,[1]; high (0.09 mg/kg) dose (first value),9.2 ± 3.3 ng/mL
same,Cmax,[1]; moderate (0.04 mg/kg) dose,21.8 ± 4.73 ng/mL
same,"luminal content (spiral, transverse, and distal colon) concentrations",[1],Significantly higher
same,mean concentration of tacrolimus in the cecum tissue and the proximate colon tissue,[1],higher
same,tissue (spiral and transverse colon) concentrations,[1],Significantly higher
same,level of tacrolimus in tissue,[1]; po,No measurable level
same,AUC,"in vivo; female, Yorkshire-Cross, pig, 0.02 mg/kg",15.3 ± 2.36 ng·h/mL
same,AUC,"in vivo; female, Yorkshire-Cross, pig, 0.04 mg/kg",51.4 ± 4.04 ng·h/mL
same,AUC(0-t),in vivo; [2],15.3 ng·h/mL
same,Cmax,in vivo; [2],2.39 ± 0.57 ng/mL
same,AUC(0-t),"in vivo; female, Yorkshire-Cross, pig, in vivo, 0.04 mg/kg",51.4 ng·h/mL
same,AUC,in vivo; [3],130 ± 7.83 ng·h/mL
same,AUC(0-t),in vivo; [3],130 ng·h/mL
same,AUC(0-t),"in vivo; female, Yorkshire-Cross, pig, in vivo, po, 0.09 mg/kg",16.8 ng·h/mL
same,AUC,"in vivo; female, Yorkshire-Cross, pig, po, 0.09 mg/kg",16.8 ± 3.64 ng·h/mL
same,concentration at 12 h,"in vivo; female, Yorkshire-Cross, pig, po, 0.09 mg/kg, Trough (12 hr)",0.568 ± 0.291 ng/mL
same,Kp at 12 h,"in vivo; female, Yorkshire-Cross, swine, po, 0.09 mg/kg",0
same,Ratio Tissue (mean) (ng/g)/ Trough(12 hr)(ng/ml),"in vivo; female, Yorkshire-Cross, swine, po, 0.09 mg/kg, 12 h",0
same,mean concentration and AUC0-12 hours of tacrolimus in the blood,"in vivo; po, 0.09 mg/kg",higher
